Experimental data: patent US9725442B2, “Heterocyclic derivative having PGD2 receptor antagonist activity” (Shionogi & Co., Ltd., priority 2011, dated 2017)
Where two headings read alike, the source gives them in different places.

Key:
CRTH2 = CRTH2 (Homo sapiens (Human), UniProt Q9Y5Y4); test: CRTH2 receptor binding inhibitory activity ([3H]-PGD2 displacement, membranes of CRTH2-expressing K562 cell); conditions: [3H]-PGD2 displacement, membrane of CRTH2-expressing K562 cell, read-out: Ki
Outline: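 CRTH2-expressing K562 membranes (20 μg/well) in 50 mM Tris/HCl pH 7.4 with 10 mM MgCl2 were incubated with [3H]-PGD2 for 60 min at room temperature, then filtered.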

Human DP1 receptor = Human DP1 receptor (Homo sapiens (Human), UniProt Q13258); test: Human DP1 inhibitory activity in DP1-expressing cell (PGD2-induced cAMP); format: cell-based; conditions: category of cAMP IC50, human DP1 receptor expressing Jurkut cell
Human DP1 receptor, sequence (Q13258 whole entry): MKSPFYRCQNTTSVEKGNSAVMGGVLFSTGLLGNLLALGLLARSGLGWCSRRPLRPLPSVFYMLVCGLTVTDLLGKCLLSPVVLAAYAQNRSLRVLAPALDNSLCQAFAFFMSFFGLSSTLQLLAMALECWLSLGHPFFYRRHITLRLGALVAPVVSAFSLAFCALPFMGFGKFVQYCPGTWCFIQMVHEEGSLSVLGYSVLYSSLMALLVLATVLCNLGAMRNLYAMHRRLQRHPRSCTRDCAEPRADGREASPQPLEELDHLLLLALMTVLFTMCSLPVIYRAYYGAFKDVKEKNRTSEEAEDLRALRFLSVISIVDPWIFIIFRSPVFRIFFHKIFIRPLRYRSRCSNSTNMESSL
Method: Compounds were categorized as AA (cAMP is less than 100 nM) and A (cAMP is more than 100 nM and less than 5000 nM) as shown in Table 99 and 100.

[1] = CRTH2 receptor binding, categorized AAAA/AAA

CRTH2, sequence (Q9Y5Y4 whole entry): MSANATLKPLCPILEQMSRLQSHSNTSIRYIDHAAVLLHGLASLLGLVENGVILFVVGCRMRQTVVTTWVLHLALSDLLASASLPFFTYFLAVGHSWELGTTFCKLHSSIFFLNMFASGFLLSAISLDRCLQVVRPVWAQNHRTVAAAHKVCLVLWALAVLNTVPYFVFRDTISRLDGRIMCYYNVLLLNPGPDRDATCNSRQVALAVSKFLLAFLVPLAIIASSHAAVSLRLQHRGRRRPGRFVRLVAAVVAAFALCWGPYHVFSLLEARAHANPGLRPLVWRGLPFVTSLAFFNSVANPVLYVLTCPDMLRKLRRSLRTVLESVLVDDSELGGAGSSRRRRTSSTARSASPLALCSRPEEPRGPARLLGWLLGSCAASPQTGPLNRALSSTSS

Row | SMILES | Ki (CRTH2; [1]) [nM] | IC50 (Human DP1 receptor) [nM] | Ki (CRTH2) [nM]
1 | Cc1ccc2c(CC(=O)O)nn([C@H]3CN(S(=O)(=O)c4ccc(OC(C)C)nc4)C[C@H]3C)c2c1 [Compound I-229] | < 100 | < 100 | 
2 | Cc1ccc2c(CC(=O)O)nn([C@H]3CN(S(=O)(=O)c4ccc(OC(F)(F)F)cc4)C[C@H]3C)c2c1 [Compound I-231] | < 100 | < 100 | 
3 | CCc1ccc(S(=O)(=O)N2C[C@@H](C)[C@@H](n3nc(CC(=O)O)c4ccc(C)cc43)C2)cc1 [Compound I-232] | < 100 | < 100 | 
4 | COc1ccc(S(=O)(=O)N2C[C@@H](C)[C@@H](n3nc(CC(=O)O)c4ccc(F)cc43)C2)nc1 [Compound I-234] | < 100 | 100 to 5000 | 
5 | CCOc1ccc(S(=O)(=O)N2C[C@@H](C)[C@@H](n3nc(CC(=O)O)c4ccc(F)cc43)C2)nc1 [Compound I-235] | < 100 | 100 to 5000 | 
6 | CCOc1ccc(S(=O)(=O)N2C[C@@H](C)[C@@H](n3nc(CC(=O)O)c4ccc(C)cc43)C2)c(F)c1 [Compound I-237] | < 100 | < 100 | 
7 | COc1ccc(S(=O)(=O)N2C[C@@H](C)[C@@H](n3nc(CC(=O)O)c4ccccc43)C2)cn1 [Compound I-240] | < 100 | 100 to 5000 | 
8 | COc1ccc(S(=O)(=O)N2C[C@@H](C)[C@@H](n3nc(CC(=O)O)c4ccccc43)C2)cc1 [Compound I-241] | < 100 | < 100 | 
9 | C[C@@H]1CN(S(=O)(=O)c2ccc(OC(F)(F)F)cc2)C[C@@H]1n1nc(CC(=O)O)c2ccccc21 [Compound I-242] | < 100 | < 100 | 
10 | COc1ccc(S(=O)(=O)N2C[C@@H](C)[C@@H](n3nc(CC(=O)O)c4ccccc43)C2)c(F)c1 [Compound I-244] | < 100 | < 100 | 
11 | COc1ccc(S(=O)(=O)N2C[C@@H](C)[C@@H](n3nc(CC(=O)O)c4ccccc43)C2)nc1 [Compound I-246] | < 100 | 100 to 5000 | 
12 | Cc1ccc2c(CC(=O)O)nn([C@H]3CN(S(=O)(=O)C4CC4C(C)C)C[C@H]3C)c2c1 (some centres unmarked) [Compound I-249] | < 100 | 100 to 5000 | 
13 | Cc1cccc2c1c(CC(=O)O)nn2[C@H]1CN(S(=O)(=O)c2ccc(OC(C)C)cc2)C[C@H]1C [Compound I-250] | 100 to 5000 | < 100 | 
14 | C[C@@H]1CN(S(=O)(=O)c2ccc(OC(F)F)cc2)C[C@@H]1n1nc(CC(=O)O)c2cc(F)ccc21 [Compound I-251] | < 100 | < 100 | 
15 | COCCOCCOc1ccc(S(=O)(=O)N2C[C@@H](C)[C@@H](n3nc(CC(=O)O)c4ccccc43)C2)cc1 [Compound I-253] | 100 to 5000 | 100 to 5000 | 
16 | CCOc1ccc(S(=O)(=O)N2C[C@@H](C)[C@@H](n3nc(CC(=O)O)c4ccccc43)C2)c(CF)c1 [Compound I-258] | < 100 | < 100 | 
17 | CCOc1ccc(S(=O)(=O)N2C[C@@H](C)[C@@H](n3nc(CC(=O)O)c4ccccc43)C2)c(CCCNC(C)=O)c1 [Compound I-260] | < 100 | 100 to 5000 | 21
18 | CC(C)Oc1ccc(S(=O)(=O)N2C[C@@H](C)[C@@H](n3nc(CC(=O)O)c4cc(C#N)ccc43)C2)cc1 [Compound I-262] | 100 to 5000 | < 100 | 
19 | CCOc1ccc(S(=O)(=O)N2C[C@@H](C)[C@@H](n3nc(CC(=O)O)c4cc(C)ccc43)C2)cn1 [Compound I-265] | < 100 | < 100 | 
20 | COc1ccc2c(c1)c(CC(=O)O)nn2[C@H]1CN(S(=O)(=O)c2ccc(OC(C)C)cc2)C[C@H]1C [Compound I-267] | 100 to 5000 | < 100 | 
21 | Cc1ccc2c(c1)c(CC(=O)O)nn2[C@H]1CN(S(=O)(=O)c2ccc(OCF)cc2)C[C@H]1C [Compound I-268] | < 100 | < 100 | 
22 | C[C@@H]1CN(S(=O)(=O)c2ccc(OCF)cc2)C[C@@H]1n1nc(CC(=O)O)c2ccc(F)cc21 [Compound I-269] | < 100 | < 100 | 
23 | CCOc1ccc(S(=O)(=O)N2C[C@@H](C)[C@@H](n3cc(CC(=O)O)c4ccc(C)cc43)C2)cc1 [Compound I-271] | < 100 | < 100 | 
24 | CCOc1ccc(S(=O)(=O)N2C[C@@H](C)[C@@H](n3cc(CC(=O)O)c4ccc(C)cc43)C2)cn1 [Compound I-272] | < 100 | < 100 | 
25 | CCOCCCOc1ccc(S(=O)(=O)N2C[C@@H](C)[C@@H](n3nc(CC(=O)O)c4ccccc43)C2)cc1 [Compound I-273] | 100 to 5000 | 100 to 5000 | 
26 | CCOc1ccc(S(=O)(=O)N2C[C@@H](C)[C@@H](n3nc(CC(=O)O)c4ccccc43)C2)c(CO)c1 [Compound I-277] | < 100 | < 100 | 
27 | C#Cc1cc(OCC)ccc1S(=O)(=O)N1C[C@@H](C)[C@@H](n2nc(CC(=O)O)c3ccccc32)C1 [Compound I-278] | < 100 | 100 to 5000 | 

More lines, now with the values ahead:

Row | Ki (CRTH2; [1]) [nM] | IC50 (Human DP1 receptor) [nM] | Ki (CRTH2) [nM] | SMILES
28 | < 100 | < 100 |  | COc1ccc(S(=O)(=O)N2C[C@@H](C)[C@@H](n3nc(CC(=O)O)c4ccc(C)cc43)C2)cc1 [Compound I-230]
29 | < 100 | < 100 |  | COc1ccc(S(=O)(=O)N2C[C@@H](C)[C@@H](n3nc(CC(=O)O)c4ccc(F)cc43)C2)c(F)c1 [Compound I-233]
30 | < 100 | < 100 |  | COc1ccc(S(=O)(=O)N2C[C@@H](C)[C@@H](n3nc(CC(=O)O)c4ccc(C)cc43)C2)c(F)c1 [Compound I-236]
31 | < 100 | 100 to 5000 |  | CC(C)C1CC1S(=O)(=O)N1C[C@@H](C)[C@@H](n2nc(CC(=O)O)c3ccccc32)C1 (some centres unmarked) [Compound I-238]
32 | < 100 | 100 to 5000 | 4.4 | CC(C)C1CC1S(=O)(=O)N1C[C@@H](C)[C@@H](n2nc(CC(=O)O)c3ccc(F)cc32)C1 (some centres unmarked) [Compound I-239]
33 | 100 to 5000 | < 100 |  | CCc1ccc(S(=O)(=O)N2C[C@@H](C)[C@@H](n3nc(CC(=O)O)c4ccccc43)C2)cc1 [Compound I-243]
34 | < 100 | 100 to 5000 | 15 | CCOc1ccc(S(=O)(=O)N2C[C@@H](C)[C@@H](n3nc(CC(=O)O)c4ccccc43)C2)nc1 [Compound I-247]
35 | < 100 | 100 to 5000 |  | CC(C)Oc1ccc(S(=O)(=O)N2C[C@@H](C)[C@@H](n3nc(CC(=O)O)c4ccccc43)C2)nc1 [Compound I-248]
36 | < 100 | < 100 |  | CCOc1ccc(S(=O)(=O)N2C[C@@H](C)[C@@H](n3nc(CC(=O)O)c4cc(F)ccc43)C2)cc1 [Compound I-252]
37 | < 100 | 100 to 5000 |  | CCOc1ccc(S(=O)(=O)N2C[C@@H](C)[C@@H](n3nc(CC(=O)O)c4ccccc43)C2)c(CNC(C)=O)c1 [Compound I-259]
38 | 100 to 5000 | 100 to 5000 |  | CCOc1ccc(S(=O)(=O)N2C[C@@H](C)[C@@H](n3nc(CC(=O)O)c4ccccc43)C2)c(OC)c1 [Compound I-261]
39 | < 100 | < 100 |  | CC(C)Oc1ccc(S(=O)(=O)N2C[C@@H](C)[C@@H](n3nc(CC(=O)O)c4c(F)cccc43)C2)cc1 [Compound I-263]
40 | < 100 | < 100 |  | [2H]c1ccc2c(c1)c(CC(=O)O)nn2[C@H]1CN(S(=O)(=O)c2ccc(OCC)cc2)C[C@H]1C [Compound I-264]
41 | 100 to 5000 | 100 to 5000 |  | C[C@@H]1CN(S(=O)(=O)C2CCCCC2)C[C@@H]1n1nc(CC(=O)O)c2ccccc21 [Compound I-266]
42 | < 100 | < 100 |  | C[C@@H]1CN(S(=O)(=O)c2ccc(OCF)cc2)C[C@@H]1n1nc(CC(=O)O)c2ccccc21 [Compound I-270]
43 | < 100 | 100 to 5000 |  | COCCCOc1ccc(S(=O)(=O)N2C[C@@H](C)[C@@H](n3nc(CC(=O)O)c4ccccc43)C2)cc1 [Compound I-274]
44 | 100 to 5000 | 100 to 5000 |  | CCOc1ccc(S(=O)(=O)N2C[C@H](n3nc(CC(=O)O)c4ccccc43)C[C@@H]2CF)cn1 [Compound I-275]
45 | < 100 | < 100 |  | C=Cc1cc(OCC)ccc1S(=O)(=O)N1C[C@@H](C)[C@@H](n2nc(CC(=O)O)c3ccccc32)C1 [Compound I-276]
46 | < 100 | 100 to 5000 |  | CCOc1ccc(S(=O)(=O)N2C[C@@H](C)[C@@H](n3nc(CC(=O)O)c4ccccc43)C2)c(/C=C/CO)c1 [Compound I-279]
47 | < 100 | 100 to 5000 | 7.8 | CCOc1ccc(S(=O)(=O)N2C[C@@H](C)[C@@H](n3nc(CC(=O)O)c4ccccc43)C2)c(CCCO)c1 [Compound I-280]
